Laboratory results published in PubChem BioAssay AID2060903 (Molecular Pharmacology Branch, DTP, NCI, 2025).

Test system: 377384-186-R-J1-PDC complex spheroid viability
Assay: Anticancer human tumor 377384-186-R-J1-PDC patient-derived pancreatic carcinoma cell line growth inhibition [RAS]
Conditions: for IC50: curve of first compound; for viability, T/C: stronger effect = lower value
Procedure, shortened: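 Tumour cells grown as complex spheroids with HUVEC endothelial cells and mesenchymal stem cells, treated with RAS pathway inhibitor combinations. Each agent spans half-log steps from near clinical Cmax, or 10 microM where Cmax is unknown.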

[1] = second compound 0.000949 µM, first compound 0.00316 µM
[2] = second compound 0.000949 µM, first compound 0.01 µM
[3] = second compound 0.000949 µM, first compound 0.0316 µM
[4] = second compound 0.000949 µM, first compound 0.1 µM
[5] = second compound 0.000949 µM, first compound 0.316 µM
[6] = second compound 0.000949 µM, first compound 1 µM
[7] = second compound 0.003 µM, first compound 0.00316 µM
[8] = second compound 0.003 µM, first compound 0.01 µM
[9] = second compound 0.003 µM, first compound 0.0316 µM
[10] = second compound 0.003 µM, first compound 0.1 µM
[11] = second compound 0.003 µM, first compound 0.316 µM
[12] = second compound 0.003 µM, first compound 1 µM
[13] = second compound 0.00949 µM, first compound 0.00316 µM
[14] = second compound 0.00949 µM, first compound 0.01 µM
[15] = second compound 0.00949 µM, first compound 0.0316 µM
[16] = second compound 0.00949 µM, first compound 0.1 µM
[17] = second compound 0.00949 µM, first compound 0.316 µM
[18] = second compound 0.00949 µM, first compound 1 µM
[19] = second compound 0.03 µM, first compound 0.00316 µM
[20] = second compound 0.03 µM, first compound 0.01 µM
[21] = second compound 0.03 µM, first compound 0.0316 µM
[22] = second compound 0.03 µM, first compound 0.1 µM
[23] = second compound 0.03 µM, first compound 0.316 µM
[24] = second compound 0.03 µM, first compound 1 µM
[25] = second compound 0.0949 µM, first compound 0.00316 µM
[26] = second compound 0.0949 µM, first compound 0.01 µM
[27] = second compound 0.0949 µM, first compound 0.0316 µM
[28] = second compound 0.0949 µM, first compound 0.1 µM
[29] = second compound 0.0949 µM, first compound 0.316 µM
[30] = second compound 0.0949 µM, first compound 1 µM
[31] = second compound 0.3 µM, first compound 0.00316 µM
[32] = second compound 0.3 µM, first compound 0.01 µM
[33] = second compound 0.3 µM, first compound 0.0316 µM
[34] = second compound 0.3 µM, first compound 0.1 µM
[35] = second compound 0.3 µM, first compound 0.316 µM
[36] = second compound 0.3 µM, first compound 1 µM
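Also: spheroids exposed to compounds for seven days before readout.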

Structure (SMILES): C=CC(=O)N1CCN(c2nc(OCC3CCCN3C)nc3c(F)c(-c4nc(N)cc(C)c4C(F)(F)F)c(Cl)cc23)C(C)C1 (stereo unspecified) + CCn1c(-c2cccnc2C(C)OC)c2c3cc(ccc31)N1CCOC(CC(NC(=O)C(C(C)C)N(C)C(=O)C3(F)CCN(C(=O)C#CC(C)(C)N(C)C)CC3)C(=O)N3CCCC(N3)C(=O)OCC(C)(C)C2)C1
- IC50 (second compound 0.000949 µM): > 1000 nM
- IC50 (second compound 0.003 µM): > 1000 nM
- IC50 (second compound 0.00949 µM): > 1000 nM
- IC50 (second compound 0.03 µM): > 1000 nM
- IC50 (second compound 0.0949 µM): > 1000 nM
- IC50 (second compound 0.3 µM): > 1000 nM
- viability, T/C [1]: 107%
- viability, T/C [2]: 108%
- viability, T/C [3]: 117%
- viability, T/C [4]: 103%
- viability, T/C [5]: 110%
- viability, T/C [6]: 89.9%
- viability, T/C [7]: 104%
- viability, T/C [8]: 96.4%
- viability, T/C [9]: 103%
- viability, T/C [10]: 114%
- viability, T/C [11]: 104%
- viability, T/C [12]: 93.3%
- viability, T/C [13]: 113%
- viability, T/C [14]: 97.7%
- viability, T/C [15]: 120%
- viability, T/C [16]: 117%
- viability, T/C [17]: 104%
- viability, T/C [18]: 99.2%
- viability, T/C [19]: 104%
- viability, T/C [20]: 96.7%
- viability, T/C [21]: 99.7%
- viability, T/C [22]: 92.5%
- viability, T/C [23]: 99%
- viability, T/C [24]: 106%
- viability, T/C [25]: 93.3%
- viability, T/C [26]: 91.3%
- viability, T/C [27]: 94.8%
- viability, T/C [28]: 103%
- viability, T/C [29]: 101%
- viability, T/C [30]: 93.4%
- viability, T/C [31]: 86.1%
- viability, T/C [32]: 86.3%
- viability, T/C [33]: 96.8%
- viability, T/C [34]: 88.1%
- viability, T/C [35]: 96%
- viability, T/C [36]: 94.8%

Structure (SMILES): Nc1ccn(C2OC(CO)C(O)C2(F)F)c(=O)n1 (stereo unspecified) + CCn1c(-c2cc(N3CCN(C)CC3)cnc2C(C)OC)c2c3cc(ccc31)-c1csc(n1)CC(NC(=O)C1CC1C)C(=O)N1CCCC(N1)C(=O)OCC(C)(C)C2
- IC50 (second compound 0.000949 µM): < 3.16 nM
- IC50 (second compound 0.003 µM): < 3.16 nM
- IC50 (second compound 0.00949 µM): < 3.16 nM
- IC50 (second compound 0.03 µM): < 3.16 nM
- IC50 (second compound 0.0949 µM): < 3.16 nM
- IC50 (second compound 0.3 µM): < 3.16 nM
- viability, T/C [1]: 41.1%
- viability, T/C [2]: 18.4%
- viability, T/C [3]: 4.12%
- viability, T/C [4]: 3.96%
- viability, T/C [5]: 3.39%
- viability, T/C [6]: 3.44%
- viability, T/C [7]: 19%
- viability, T/C [8]: 8.01%
- viability, T/C [9]: 5.2%
- viability, T/C [10]: 2.62%
- viability, T/C [11]: 3.06%
- viability, T/C [12]: 2.55%
- viability, T/C [13]: 4.2%
- viability, T/C [14]: 3.81%
- viability, T/C [15]: 3.02%
- viability, T/C [16]: 2.45%
- viability, T/C [17]: 2.8%
- viability, T/C [18]: 2.63%
- viability, T/C [19]: 2.29%
- viability, T/C [20]: 3.33%
- viability, T/C [21]: 2.15%
- viability, T/C [22]: 2.11%
- viability, T/C [23]: 3.23%
- viability, T/C [24]: 2.21%
- viability, T/C [25]: 2.1%
- viability, T/C [26]: 2.03%
- viability, T/C [27]: 1.97%
- viability, T/C [28]: 1.8%
- viability, T/C [29]: 1.92%
- viability, T/C [30]: 1.8%
- viability, T/C [31]: 1.98%
- viability, T/C [32]: 2.16%
- viability, T/C [33]: 1.73%
- viability, T/C [34]: 1.47%
- viability, T/C [35]: 1.95%
- viability, T/C [36]: 2.17%

Structure (SMILES): C[C@@H](NC(=O)c1ncnc(N)c1Cl)c1ncc(C(=O)Nc2cc(C(F)(F)F)c(Cl)cn2)s1 + C=CC(=O)N1CCN(c2nc(OCC3CCCN3C)nc3c(F)c(-c4nc(N)cc(C)c4C(F)(F)F)c(Cl)cc23)C(C)C1
- IC50 (second compound 0.00316 µM): > 10000 nM
- IC50 (second compound 0.01 µM): > 10000 nM
- IC50 (second compound 0.0316 µM): > 10000 nM
- IC50 (second compound 0.1 µM): > 10000 nM
- IC50 (second compound 0.316 µM): > 10000 nM
- IC50 (second compound 1 µM): > 10000 nM
- viability, T/C (second compound 0.00316 µM, first compound 0.0316 µM): 90%
- viability, T/C (second compound 0.00316 µM, first compound 0.1 µM): 85.2%
- viability, T/C (second compound 0.00316 µM, first compound 0.316 µM): 83.8%
- viability, T/C (second compound 0.00316 µM, first compound 1 µM): 108%
- viability, T/C (second compound 0.00316 µM, first compound 3.16 µM): 120%
- viability, T/C (second compound 0.00316 µM, first compound 10 µM): 122%
- viability, T/C (second compound 0.01 µM, first compound 0.0316 µM): 98.5%
- viability, T/C (second compound 0.01 µM, first compound 0.1 µM): 86.3%
- viability, T/C (second compound 0.01 µM, first compound 0.316 µM): 102%
- viability, T/C (second compound 0.01 µM, first compound 1 µM): 118%
- viability, T/C (second compound 0.01 µM, first compound 3.16 µM): 122%
- viability, T/C (second compound 0.01 µM, first compound 10 µM): 131%
- viability, T/C (second compound 0.0316 µM, first compound 0.0316 µM): 98.4%
- viability, T/C (second compound 0.0316 µM, first compound 0.1 µM): 87.8%
- viability, T/C (second compound 0.0316 µM, first compound 0.316 µM): 101%
- viability, T/C (second compound 0.0316 µM, first compound 1 µM): 118%
- viability, T/C (second compound 0.0316 µM, first compound 3.16 µM): 116%
- viability, T/C (second compound 0.0316 µM, first compound 10 µM): 130%
- viability, T/C (second compound 0.1 µM, first compound 0.0316 µM): 84%
- viability, T/C (second compound 0.1 µM, first compound 0.1 µM): 103%
- viability, T/C (second compound 0.1 µM, first compound 0.316 µM): 92.3%
- viability, T/C (second compound 0.1 µM, first compound 1 µM): 115%
- viability, T/C (second compound 0.1 µM, first compound 3.16 µM): 120%
- viability, T/C (second compound 0.1 µM, first compound 10 µM): 124%
- viability, T/C (second compound 0.316 µM, first compound 0.0316 µM): 98.3%
- viability, T/C (second compound 0.316 µM, first compound 0.1 µM): 87.1%
- viability, T/C (second compound 0.316 µM, first compound 0.316 µM): 119%
- viability, T/C (second compound 0.316 µM, first compound 1 µM): 115%
- viability, T/C (second compound 0.316 µM, first compound 3.16 µM): 143%
- viability, T/C (second compound 0.316 µM, first compound 10 µM): 134%
- viability, T/C (second compound 1 µM, first compound 0.0316 µM): 93.9%
- viability, T/C (second compound 1 µM, first compound 0.1 µM): 109%
- viability, T/C (second compound 1 µM, first compound 0.316 µM): 110%
- viability, T/C (second compound 1 µM, first compound 1 µM): 115%
- viability, T/C (second compound 1 µM, first compound 3.16 µM): 122%
- viability, T/C (second compound 1 µM, first compound 10 µM): 118%
